Reference: US11066445B2, “Immunomodulators acting as antagonists of PD-1” (Bristol-Myers Squibb Company, priority 2017, dated 2021)
Starred links: 1 amine or outer side, 2 acyl side, 3 side chain; linkers in the order of their positions; H or OH if unused. Positions of bridges follow the written chain, without caps; N, C: chain ends. Non-standard residues stand in square brackets, D forms with d. Residues, ends and D or L forms follow the SMILES beside them. *: point of attachment. X3 = O=C(O)CCCCCCCCCCCCCCCCC(=O)N[C@@H](CCC(=O)NCCCOCCOCCOCCCN*)C(=O)O; Trp(1-CH2CONHSO2Me) = CS(=O)(=O)NC(=O)Cn1cc(C[C@H](N)C(=O)O)c2ccccc21; X1 = O=C(O)CCCCCCCCCCCCCCC(=O)N[C@@H](CCC(=O)NCCCOCCOCCOCCCN*)C(=O)O; Trp(4-aza,1-CH2COOH) = N[C@@H](Cc1cn(CC(=O)O)c2cccnc12)C(=O)O; Trp(7-aza,1-CH2COOH) = N[C@@H](Cc1cn(CC(=O)O)c2ncccc12)C(=O)O; Trp(1-CH2CO2Me) = COC(=O)Cn1cc(C[C@H](N)C(=O)O)c2ccccc21; X6 = COc1ccc2c(c1)c(C[C@H](N[*:1])C(=O)[*:2])cn2CC(=O)O; X2 = O=C(O)Cn1cc(C[C@@H](N[*:1])C(=O)[*:2])c2cccnc21; X4 = O=C(O)Cn1nc(C[C@H](N[*:1])C(=O)[*:2])c2ccccc21; d(cisHyp) = O=C(O)[C@H]1C[C@@H](O)CN1; Hyp = O=C(O)[C@@H]1C[C@@H](O)CN1; NMeNle = CCCC[C@H](NC)C(=O)O; NMeA = CN[C@@H](C)C(=O)O; Dab = NCC[C@H](N)C(=O)O; Dap = NC[C@H](N)C(=O)O; Sar = CNCC(=O)O

Target: T1, PD-1-Ig binding to PD-L1-TVMV-His (PD-L1-His) (Homo sapiens, UniProt Q9NZQ7)
T1 construct: hPDL1(19-239)-TVMV-His; TVMV protease cleavage site (C); made in house; host or cells: HEK293T cells
Experiment: PD-1/PD-L1 Homogenous Time-Resolved Fluorescence (HTRF) binding assay
Details: PD-1-Ig (20 nM) / PD-L1-His (10 nM); range classes; read-out: LE HTRF hPD1 hPDL1 IC50
Description: Methods for Testing the Ability of Macrocyclic Peptides to Compete for the Binding of Pd-1 to Pd-L1 Using Homogenous Time-Resolved Fluorescence (HTRF) Binding Assays
The ability of the macrocyclic peptides of the present disclosure to bind to PD-L1 was investigated using a PD-1/PD-L1 Homogenous Time-Resolved Fluorescence (HTRF) binding assay.
Homogenous Time-Resolved Fluorescence (HTRF) Assays of Binding of Soluble PD-1 to Soluble PD-L1. Soluble PD-1 and soluble PD-L1 refers to proteins with carboxyl-end truncations that remove the transmembrane-spanning regions and are fused to heterologous sequences, specifically the Fc portion of the human immunoglobuling G sequence (Ig) or the hexahistidine epitope tag (His). All binding studies were performed in an HTRF assay buffer consisting of dPBS supplemented with 0.1% (w/v) bovine serum albumin and 0.05% (v/v) Tween-20. For the PD-1-Ig/PD-L1-His binding assay, inhibitors were pre-incubated with PD-L1-His (10 nM final) for 15 m in 4 μl of assay buffer, followed by addition of PD-1-Ig (20 nM final) in 1 μl of assay buffer and further incubation for 15 m. PD-L1 fusion proteins from either human, cynomologous macaques, mouse, or other species were used. HTRF detection was achieved using europium crypate-labeled anti-Ig monoclonal antibody (1 nM final) and allophycocyanin (APC) labeled anti-His monoclonal antibody (20 nM final). Antibodies were diluted in HTRF detection buffer and 5 μl was dispensed on top of binding reaction. The reaction was allowed to equilibrate for 30 minutes and signal (665 nm/620 nm ratio) was obtained using an EnVision fluorometer. Additional binding assays were established between PD-1-Ig/PD-L2-His (20 and 5 nM, respectively), CD80-His/PD-L1-Ig (100 and 10 nM, respectively) and CD80-His/CTLA4-Ig (10 and 5 nM, respectively). Binding/competition studies between biotinylated Compound No. 71 and human PD-L1-His were performed as follows. Macrocyclic peptide inhibitors were pre-incubated with PD-L1-His (10 nM final) for 60 minutes in 4 μl of assay buffer followed by addition of biotinylated Compound No. 71 (0.5 nM final) in 1 μl of assay buffer. Binding was allowed to equilibrate for 30 minutes followed by addition of europium crypated labeled Streptavidin (2.5 pM final) and APC-labeled anti-His (20 nM final) in 5 μl of HTRF buffer. The reaction was allowed to equilibrate for 30 m and signal (665 nm/620 nm ratio) was obtained using an EnVision fluorometer.
Recombinant Proteins. Carboxyl-truncated human PD-1 (amino acids 25-167) with a C-terminal human Ig epitope tag [hPD-1 (25-167)-3S-IG] and human PD-L1 (amino acids 18-239) with a C-terminal His epitope tag [hPD-L1(19-239)-tobacco vein mottling virus protease cleavage site (TVMV)-His] were expressed in HEK293T cells and purified sequentially by recombinant Protein A affinity chromatography and size exclusion chromatography. Human PD-L2-His (Sino Biologicals), CD80-His (Sino Biologicals), CTLA4-Ig (RnD Systems) were all obtained through commercial sources.
Ranges are as follows: A=0.010-0.060 μM; B=0.0011-0.009 μM; C=0.0003-0.0010 μM.

T1 sequence (Q9NZQ7 with tags, fused parts or gaps): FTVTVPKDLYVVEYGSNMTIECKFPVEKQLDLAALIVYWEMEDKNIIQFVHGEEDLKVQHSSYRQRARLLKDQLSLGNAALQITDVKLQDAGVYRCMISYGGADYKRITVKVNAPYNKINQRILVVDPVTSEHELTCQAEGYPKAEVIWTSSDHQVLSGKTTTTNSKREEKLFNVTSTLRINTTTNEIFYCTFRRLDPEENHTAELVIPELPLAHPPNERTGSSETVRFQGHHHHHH

IC50 [nM]	Compound
0.3 to 1	CCCC[C@H]1C(=O)N(C)[C@@H](CCCC)C(=O)N[C@@H](CC(C)C)C(=O)N[C@H](C(=O)NCC(=O)N[C@@H](CC(=O)NCCCOCCOCCOCCCNC(=O)CC[C@H](NC(=O)CCCCCCCCCCCCCCCCC(=O)O)C(=O)O)C(=O)O)CSCC(=O)N[C@@H](Cc2ccc(O)cc2)C(=O)N(C)[C@@H](C)C(=O)N[C@@H](CC(N)=O)C(=O)N2CCC[C@H]2C(=O)N[C@@H](CN)C(=O)N[C@@H](CC(C)C)C(=O)N2C[C@H](O)C[C@H]2C(=O)N[C@@H](Cc2c[nH]c3ccccc23)C(=O)N[C@@H](CCN)C(=O)N[C@@H](Cc2cn(CC(=O)O)c3ccc(OC)cc23)C(=O)N1C [Example 12] ({CH2CO}-Y[NMeA]NP[Dap]L[Hyp]W[Dab][X6][NMeNle][NMeNle]LCGD(X3)-OH; thioether N-14)
10 to 60	CCCC[C@H]1C(=O)N(C)[C@@H](CCCC)C(=O)N[C@@H](CC(C)C)C(=O)N[C@H](C(=O)NCC(=O)N[C@@H](CC(=O)NCCCOCCOCCOCCCNC(=O)CC[C@H](NC(=O)CCCCCCCCCCCCCCCCC(=O)O)C(=O)O)C(=O)O)CSCC(=O)N[C@@H](Cc2ccc(O)cc2)C(=O)N(C)[C@@H](C)C(=O)N[C@@H](CC(N)=O)C(=O)N2CCC[C@H]2C(=O)N[C@@H](CN)C(=O)N[C@@H](CC(C)C)C(=O)N2C[C@H](O)C[C@H]2C(=O)N[C@@H](Cc2c[nH]c3ccccc23)C(=O)N[C@@H](CCN)C(=O)N[C@H](Cc2cn(CC(=O)O)c3ncccc23)C(=O)N1C [Example 14] ({CH2CO}-Y[NMeA]NP[Dap]L[Hyp]W[Dab][X2][NMeNle][NMeNle]LCGD(X3)-OH; thioether N-14)
1.1 to 9	CCCC[C@H]1C(=O)N(C)[C@@H](CCCC)C(=O)N[C@@H](CC(C)C)C(=O)N[C@H](C(=O)NCC(=O)N[C@@H](CC(=O)NCCCOCCOCCOCCCNC(=O)CC[C@H](NC(=O)CCCCCCCCCCCCCCC(=O)O)C(=O)O)C(=O)O)CSCC(=O)N[C@@H](Cc2ccc(O)cc2)C(=O)N(C)[C@@H](C)C(=O)N[C@@H](CC(N)=O)C(=O)N2CCC[C@H]2C(=O)N[C@@H](CN)C(=O)N[C@@H](CC(C)C)C(=O)N2C[C@H](O)C[C@H]2C(=O)N[C@@H](Cc2c[nH]c3ccccc23)C(=O)N[C@@H](CCN)C(=O)N[C@@H](Cc2nn(CC(=O)O)c3ccccc23)C(=O)N1C [Example 17] ({CH2CO}-Y[NMeA]NP[Dap]L[Hyp]W[Dab][X4][NMeNle][NMeNle]LCGD(X1)-OH; thioether N-14)
10 to 60	CCCC[C@H]1C(=O)N(C)[C@@H](CCCC)C(=O)N[C@@H](CC(C)C)C(=O)N[C@H](C(=O)NCC(=O)N[C@@H](CC(=O)NCCCOCCOCCOCCCNC(=O)CC[C@H](NC(=O)CCCCCCCCCCCCCCC(=O)O)C(=O)O)C(=O)O)CSCC(=O)N[C@@H](Cc2ccc(O)cc2)C(=O)N(C)[C@@H](C)C(=O)N[C@@H](CC(N)=O)C(=O)N2CCC[C@H]2C(=O)N[C@@H](CN)C(=O)N[C@@H](CC(C)C)C(=O)N2C[C@H](O)C[C@H]2C(=O)N[C@@H](Cc2c[nH]c3ccccc23)C(=O)N[C@@H](CCN)C(=O)N[C@@H](Cc2cn(CC(=O)O)c3cccnc23)C(=O)N1C [Example 18] ({CH2CO}-Y[NMeA]NP[Dap]L[Hyp]W[Dab][Trp(4-aza,1-CH2COOH)][NMeNle][NMeNle]LCGD(X1)-OH; thioether N-14)

Continued, compound first:

Compound	IC50 [nM]
CCCC[C@H]1C(=O)N(C)[C@@H](CCCC)C(=O)N[C@@H](CC(C)C)C(=O)N[C@H](C(=O)NCC(=O)N[C@@H](CC(=O)NCCCOCCOCCOCCCNC(=O)CC[C@H](NC(=O)CCCCCCCCCCCCCCCCC(=O)O)C(=O)O)C(=O)O)CSCC(=O)N[C@@H](Cc2ccc(O)cc2)C(=O)N(C)[C@@H](C)C(=O)N[C@@H](CC(N)=O)C(=O)N(C)CC(=O)N[C@@H](CN)C(=O)N[C@@H](CC(C)C)C(=O)N2C[C@H](O)C[C@@H]2C(=O)N[C@@H](Cc2c[nH]c3ccccc23)C(=O)N[C@@H](CCN)C(=O)N[C@@H](Cc2cn(CC(=O)OC)c3ccccc23)C(=O)N1C [Example 10] ({CH2CO}-Y[NMeA]N[Sar][Dap]L[d(cisHyp)]W[Dab][Trp(1-CH2CO2Me)][NMeNle][NMeNle]LCGD(X3)-OH; thioether N-14)	1.1 to 9
CCCC[C@H]1C(=O)N(C)[C@@H](CCCC)C(=O)N[C@@H](CC(C)C)C(=O)N[C@H](C(=O)NCC(=O)N[C@@H](CC(=O)NCCCOCCOCCOCCCNC(=O)CC[C@H](NC(=O)CCCCCCCCCCCCCCC(=O)O)C(=O)O)C(=O)O)CSCC(=O)N[C@@H](Cc2ccc(O)cc2)C(=O)N(C)[C@@H](C)C(=O)N[C@@H](CC(N)=O)C(=O)N2CCC[C@H]2C(=O)N[C@@H](CN)C(=O)N[C@@H](CC(C)C)C(=O)N2C[C@H](O)C[C@H]2C(=O)N[C@@H](Cc2c[nH]c3ccccc23)C(=O)N[C@@H](CCN)C(=O)N[C@@H](Cc2cn(CC(=O)NS(C)(=O)=O)c3ccccc23)C(=O)N1C [Example 15] ({CH2CO}-Y[NMeA]NP[Dap]L[Hyp]W[Dab][Trp(1-CH2CONHSO2Me)][NMeNle][NMeNle]LCGD(X1)-OH; thioether N-14)	1.1 to 9
CCCC[C@H]1C(=O)N(C)[C@@H](CCCC)C(=O)N[C@@H](CC(C)C)C(=O)N[C@H](C(=O)NCC(=O)N[C@@H](CC(=O)NCCCOCCOCCOCCCNC(=O)CC[C@H](NC(=O)CCCCCCCCCCCCCCC(=O)O)C(=O)O)C(=O)O)CSCC(=O)N[C@@H](Cc2ccc(O)cc2)C(=O)N(C)[C@@H](C)C(=O)N[C@@H](CC(N)=O)C(=O)N2CCC[C@H]2C(=O)N[C@@H](CN)C(=O)N[C@@H](CC(C)C)C(=O)N2C[C@H](O)C[C@H]2C(=O)N[C@@H](Cc2c[nH]c3ccccc23)C(=O)N[C@@H](CCN)C(=O)N[C@@H](Cc2cn(CC(=O)OC)c3ccccc23)C(=O)N1C [Example 16] ({CH2CO}-Y[NMeA]NP[Dap]L[Hyp]W[Dab][Trp(1-CH2CO2Me)][NMeNle][NMeNle]LCGD(X1)-OH; thioether N-14)	1.1 to 9
CCCC[C@H]1C(=O)N(C)[C@@H](CCCC)C(=O)N[C@@H](CC(C)C)C(=O)N[C@H](C(=O)NCC(=O)N[C@@H](CC(=O)NCCCOCCOCCOCCCNC(=O)CC[C@H](NC(=O)CCCCCCCCCCCCCCC(=O)O)C(=O)O)C(=O)O)CSCC(=O)N[C@@H](Cc2ccc(O)cc2)C(=O)N(C)[C@@H](C)C(=O)N[C@@H](CC(N)=O)C(=O)N2CCC[C@H]2C(=O)N[C@@H](CN)C(=O)N[C@@H](CC(C)C)C(=O)N2C[C@H](O)C[C@H]2C(=O)N[C@@H](Cc2c[nH]c3ccccc23)C(=O)N[C@@H](CCN)C(=O)N[C@@H](Cc2cn(CC(=O)O)c3ncccc23)C(=O)N1C [Example 19] ({CH2CO}-Y[NMeA]NP[Dap]L[Hyp]W[Dab][Trp(7-aza,1-CH2COOH)][NMeNle][NMeNle]LCGD(X1)-OH; thioether N-14)	1.1 to 9
CCCC[C@H]1C(=O)N(C)[C@@H](CCCC)C(=O)N[C@@H](CC(C)C)C(=O)N[C@H](C(=O)NCC(=O)N[C@@H](CC(=O)NCCCOCCOCCOCCCNC(=O)CC[C@H](NC(=O)CCCCCCCCCCCCCCC(=O)O)C(=O)O)C(=O)O)CSCC(=O)N[C@@H](Cc2ccc(O)cc2)C(=O)N(C)[C@@H](C)C(=O)N[C@@H](CC(N)=O)C(=O)N2CCC[C@H]2C(=O)N[C@@H](CN)C(=O)N[C@@H](CC(C)C)C(=O)N2C[C@H](O)C[C@H]2C(=O)N[C@@H](Cc2c[nH]c3ccccc23)C(=O)N[C@@H](CCN)C(=O)N[C@H](Cc2cn(CC(=O)O)c3ncccc23)C(=O)N1C [Example 20] ({CH2CO}-Y[NMeA]NP[Dap]L[Hyp]W[Dab][X2][NMeNle][NMeNle]LCGD(X1)-OH; thioether N-14)	10 to 60
